Tests used:
rat nodal ganglion cells = settings: various concentrations; ref [31], [32], [33], [34]; cited from earlier work
Description: Previous reports indicate that rat nodal ganglion cells respond to various concentrations of hormones, including CCK, GLP1, PYY, and 5‐HT [31, 32, 33, 34]. […] However, it is noteworthy that the overexpression of these receptors in our model may not reconstruct natural expres ...

NPY2R [1] = experiment: cAMP accumulation assay, NPY2R‐HEK293T cells; format: cell-based, human; settings: 0, 1, 10, 100 nM PYY, 0.5 mM IBMX, 10 μM FSK, 37 °C, 30 min, cAMP ELISA, n = 3
Experimental: (§1) HEK293T cells (Lenti‐X 293T Cell line; TaKaRa, Shiga, Japan) were maintained in Dulbecco's Modified Eagle Medium (DMEM; Fujifilm Wako Pure Chemical Industries, Osaka, Japan) supplemented with 10% fetal bovine serum (Biowest, Nuaillé, France), 1% non‐essential amino acids (NEAA) (Fujifilm Wako Pure Chemical Industries), and 1% penicillin–streptomycin (P/S) (Fujifilm Wako Pure Chemical Industries) and cultured in non‐coated culture plates at 37 °C and in an incubator with 5% CO2. The culture medium was replaced every 2–3 days. At 80–90% confluence, the cell colonies were digested into single cells using TrypLE Express (Thermo Fisher Scientific). The resulting cells were used for lentiviral transfection and agonist experiments.
Figure S1 presents the protocol used for this experiment. Lentiviral vectors were acquired from VectorBuilder (VectorBuilder Japan, Inc., Kanagawa, Japan). The mCherry expression vector (pLV‐Puro‐EF1A‐mCherry) was used as a control. pMD2.g plasmid (Addgene plasmid# 12259; RRID: Addgene 12259, Watertown, MA, USA) and psPAX2 plasmids (Addgene plasmid# 12260; RRID: Addgene 12260) were used as packaging plasmids. To produce lentiviruses, HEK293T cells were transduced with lentiviral vectors and packaging constructs containing 2 μg of lentivirus plasmids, 1 μg of pMD2.g, and 1 μg of psPAX2 plasmids using polyethyleneimine (PEI; Polysciences Inc., Warrington, PA, USA). […]

NPY2R [2] = experiment: Ca^2+ imaging, NPY2R‐HEK293T cells; format: cell-based, human; settings: PYY (3-36) per Fig. S2B, Fluo‐8 AM, Ringer's solution pH 7.4, ΔF/F0, n = 10
Experimental: as §1
Figure S1 presents the protocol used for this experiment. Lentiviral vectors were acquired from VectorBuilder (VectorBuilder Japan, Inc., Kanagawa, Japan). […]
Transduced HEK293T and neurons were incubated with 10 μM Fluo‐8 AM, a calcium indicator (AAT Bioquest, Pleasanton, CA, USA), in each culture medium (Cell lines and cell culture and Induction to parasympathetic neurons sections) at 37 °C for 30 min. […] Fluorescence (excitation: 490 nm, emission: 525 nm) was detected using a confocal spinning disk confocal laser scanning unit (CSU‐W1; Yokogawa Electric, Tokyo, Japan) and an LED light (X‐Cite 120LED; Opto Science, Tokyo, Japan). […]

Substance	Response of rat nodal ganglion cells (rat nodal ganglion cells)	Intracellular cAMP levels (Gi function) (NPY2R [1])	Concentration giving response (increased intracellular Ca^2+ concentration) (NPY2R [2])
PYY: PYY (4400‐v; Peptide Institute, Inc.); PYY (3–36) in Ca2+ imaging	respond	decreased in a concentration‐dependent manner	> 10 nM
GLP1: GLP1 (4280‐v; Peptide Institute, Inc.); GLP1 (7–37) in Ca2+ imaging (HAEGTFTSDVSSYLEGQAAKEFIAWLVKGRG; Glucagon-like peptide 1(7-37); UniProt P01275 98-128, looked up)	respond		

From publication PMC10761937, “Functional engineering of human iPSC‐derived parasympathetic neurons enhances responsiveness to gastrointestinal hormones” (FEBS Open Bio, 2023)
